Results published in ChEMBL document CHEMBL1201862, “PubChem BioAssay data set” (2004).
Calls of active or inactive are those of the source.

Legend:
[1] = Fluorescence-based cell-based high throughput dose response assay for inhibitors of the interaction of nucleotide-binding oligomerization domain containing 2 (NOD2) and the receptor-interacting serine-threonine kinase 2 (RIPK2).; format: functional; details: Homo sapiens
[2] = biological target: T1, Rac GTPase-activating protein 1 (Homo sapiens, UniProt Q9H0H5); test: MgcRacGAP GTPase-activating activity inhibitors, confirmation, biochemical, ADP Hunter fluorescence, primary and confirmatory (AID 624330); format: functional
T1 sequence (Q9H0H5 whole entry): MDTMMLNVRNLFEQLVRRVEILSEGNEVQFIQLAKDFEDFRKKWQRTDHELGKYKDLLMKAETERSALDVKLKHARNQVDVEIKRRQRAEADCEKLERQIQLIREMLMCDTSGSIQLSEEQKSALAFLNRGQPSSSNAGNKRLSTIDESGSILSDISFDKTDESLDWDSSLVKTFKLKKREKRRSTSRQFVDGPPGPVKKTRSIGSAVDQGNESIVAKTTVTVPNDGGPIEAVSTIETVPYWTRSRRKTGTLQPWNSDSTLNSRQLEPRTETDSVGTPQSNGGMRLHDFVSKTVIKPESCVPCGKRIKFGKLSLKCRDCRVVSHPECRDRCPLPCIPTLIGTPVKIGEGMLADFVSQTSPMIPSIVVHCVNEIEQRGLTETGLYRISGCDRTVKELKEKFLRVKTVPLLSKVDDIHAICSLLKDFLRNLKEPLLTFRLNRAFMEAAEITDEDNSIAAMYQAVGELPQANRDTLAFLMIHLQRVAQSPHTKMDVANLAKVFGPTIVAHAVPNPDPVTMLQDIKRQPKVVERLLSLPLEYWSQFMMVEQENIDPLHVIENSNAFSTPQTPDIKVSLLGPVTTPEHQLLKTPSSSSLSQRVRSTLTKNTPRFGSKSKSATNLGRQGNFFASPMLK

[3] = biological target: T2, Interleukin-8 (Homo sapiens, UniProt P10145); test: Dose Response confirmation of uHTS small molecule hits for cystic fibrosis induced NFkb Inhibitors in a TNFa-induced IL8 counterscreen.; format: functional; details: read-out: IC50_Mean
T2 sequence (P10145 whole entry): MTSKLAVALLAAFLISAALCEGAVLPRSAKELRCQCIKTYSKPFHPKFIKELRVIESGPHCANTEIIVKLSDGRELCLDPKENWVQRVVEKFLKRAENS

[4] = biological target: T2, Interleukin-8; test: Dose Response confirmation of uHTS small molecule hits for cystic fibrosis induced NFkb Inhibitors in a PAF-induced IL8 counterscreen.; format: functional; details: read-out: IC50_Mean
[5] = biological target: Galanin receptor type 3 (Homo sapiens, UniProt O60755); test: Fluorescence-based cell-based primary high throughput dose response assay to identify antagonists of the Galanin Receptor 3 (GalR3).; format: functional
Sequence of Galanin receptor type 3 (O60755 whole entry): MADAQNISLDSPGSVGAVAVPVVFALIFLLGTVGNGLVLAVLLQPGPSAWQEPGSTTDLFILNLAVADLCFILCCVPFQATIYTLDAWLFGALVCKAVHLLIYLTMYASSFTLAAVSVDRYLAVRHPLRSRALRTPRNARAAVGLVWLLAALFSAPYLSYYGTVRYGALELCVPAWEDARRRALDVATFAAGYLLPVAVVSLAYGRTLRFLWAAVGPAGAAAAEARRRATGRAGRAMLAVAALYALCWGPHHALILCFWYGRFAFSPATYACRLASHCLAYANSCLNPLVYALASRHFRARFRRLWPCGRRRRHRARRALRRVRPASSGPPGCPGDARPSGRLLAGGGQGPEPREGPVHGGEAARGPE

[6] = cells; format: functional, cell-based; details: HEK-CNG
[7] = biological target: Nonstructural protein 1 (Influenza A virus, UniProt Q194T2); format: functional, Influenza A virus (A/California/07/2009(H1N1))
Sequence of Nonstructural protein 1 (Q194T2 whole entry): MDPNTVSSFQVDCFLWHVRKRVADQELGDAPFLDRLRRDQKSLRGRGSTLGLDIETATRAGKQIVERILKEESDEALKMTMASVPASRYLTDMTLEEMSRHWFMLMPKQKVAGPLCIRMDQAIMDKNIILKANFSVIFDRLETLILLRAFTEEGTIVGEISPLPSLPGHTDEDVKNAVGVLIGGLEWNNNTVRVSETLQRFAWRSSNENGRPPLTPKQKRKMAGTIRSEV

[8] = AlphaScreen signal interference compounds, dose response, artefact control for ARNT-TACC3 interaction inhibitor project, biochemical, luminescence, cherry-pick (AID 651705); format: functional;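 note: AlphaScreen bead proximity signal that flags compounds interfering with the detection technology; potency reflects signal decrease which marks the compound as an assay artifact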
[9] = NIH/3T3 fibroblast cytotoxicity, dose response, cytotoxicity control for T. cruzi growth inhibitor project, cell-based, cherry-pick samples, set 2 (AID 651817); format: functional; details: NIH3T3
[10] = intracellular Trypanosoma cruzi inhibitors in host cells – cell-based, plate reader, cherry-pick samples, set 3, dose response (AID 651818); format: functional;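 note: compounds incubated with infected cells for about four days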
[11] = ARNT/TACC3 interaction disruptors, potency, confirmation, biochemical, AlphaScreen, cherry-picked samples (AID 651703); format: functional, Homo sapiens;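 note: His-tagged ARNT PAS-B domain paired with GST-TACC3 E629A dimer coactivator fragment; potency of inhibitors that break up the complex and lower AlphaScreen signal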
[12] = biological target: Adenosylmethionine-8-amino-7-oxononanoate aminotransferase (Mycobacterium tuberculosis, UniProt P9WQ81); test: Mycobacterium tuberculosis BioA enzyme inhibitor Measured in Biochemical System Using Plate Reader - 2163-02_Inhibitor_Dose_CherryPick_Activity.; format: functional, Mycobacterium tuberculosis UT205
Sequence of Adenosylmethionine-8-amino-7-oxononanoate aminotransferase (P9WQ81 whole entry): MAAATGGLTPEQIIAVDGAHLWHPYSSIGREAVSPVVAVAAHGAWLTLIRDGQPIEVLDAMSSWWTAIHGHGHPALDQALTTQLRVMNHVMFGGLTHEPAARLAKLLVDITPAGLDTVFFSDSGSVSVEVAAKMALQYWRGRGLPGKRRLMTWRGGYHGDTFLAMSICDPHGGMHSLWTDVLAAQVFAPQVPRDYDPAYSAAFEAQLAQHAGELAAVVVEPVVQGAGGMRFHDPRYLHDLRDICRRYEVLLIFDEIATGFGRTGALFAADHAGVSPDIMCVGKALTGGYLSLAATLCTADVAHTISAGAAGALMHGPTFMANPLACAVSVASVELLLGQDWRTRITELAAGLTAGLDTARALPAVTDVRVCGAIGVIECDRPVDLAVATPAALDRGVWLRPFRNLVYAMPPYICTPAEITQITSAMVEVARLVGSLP

[13] = biological target: T3, ATP-dependent translocase ABCB1 (Homo sapiens, UniProt P08183); test: ABCG2 efflux pump inhibitor potency, dose response, Ig-MXP3 cells, JC-1, flow cytometry, set 2 (AID 504566); format: functional; details: read-out: EC50_MICROM_;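 note: flow cytometry median green fluorescence of retained JC-1 dye; potency of efflux pump inhibition measured as rising substrate retention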
T3 sequence (P08183 whole entry): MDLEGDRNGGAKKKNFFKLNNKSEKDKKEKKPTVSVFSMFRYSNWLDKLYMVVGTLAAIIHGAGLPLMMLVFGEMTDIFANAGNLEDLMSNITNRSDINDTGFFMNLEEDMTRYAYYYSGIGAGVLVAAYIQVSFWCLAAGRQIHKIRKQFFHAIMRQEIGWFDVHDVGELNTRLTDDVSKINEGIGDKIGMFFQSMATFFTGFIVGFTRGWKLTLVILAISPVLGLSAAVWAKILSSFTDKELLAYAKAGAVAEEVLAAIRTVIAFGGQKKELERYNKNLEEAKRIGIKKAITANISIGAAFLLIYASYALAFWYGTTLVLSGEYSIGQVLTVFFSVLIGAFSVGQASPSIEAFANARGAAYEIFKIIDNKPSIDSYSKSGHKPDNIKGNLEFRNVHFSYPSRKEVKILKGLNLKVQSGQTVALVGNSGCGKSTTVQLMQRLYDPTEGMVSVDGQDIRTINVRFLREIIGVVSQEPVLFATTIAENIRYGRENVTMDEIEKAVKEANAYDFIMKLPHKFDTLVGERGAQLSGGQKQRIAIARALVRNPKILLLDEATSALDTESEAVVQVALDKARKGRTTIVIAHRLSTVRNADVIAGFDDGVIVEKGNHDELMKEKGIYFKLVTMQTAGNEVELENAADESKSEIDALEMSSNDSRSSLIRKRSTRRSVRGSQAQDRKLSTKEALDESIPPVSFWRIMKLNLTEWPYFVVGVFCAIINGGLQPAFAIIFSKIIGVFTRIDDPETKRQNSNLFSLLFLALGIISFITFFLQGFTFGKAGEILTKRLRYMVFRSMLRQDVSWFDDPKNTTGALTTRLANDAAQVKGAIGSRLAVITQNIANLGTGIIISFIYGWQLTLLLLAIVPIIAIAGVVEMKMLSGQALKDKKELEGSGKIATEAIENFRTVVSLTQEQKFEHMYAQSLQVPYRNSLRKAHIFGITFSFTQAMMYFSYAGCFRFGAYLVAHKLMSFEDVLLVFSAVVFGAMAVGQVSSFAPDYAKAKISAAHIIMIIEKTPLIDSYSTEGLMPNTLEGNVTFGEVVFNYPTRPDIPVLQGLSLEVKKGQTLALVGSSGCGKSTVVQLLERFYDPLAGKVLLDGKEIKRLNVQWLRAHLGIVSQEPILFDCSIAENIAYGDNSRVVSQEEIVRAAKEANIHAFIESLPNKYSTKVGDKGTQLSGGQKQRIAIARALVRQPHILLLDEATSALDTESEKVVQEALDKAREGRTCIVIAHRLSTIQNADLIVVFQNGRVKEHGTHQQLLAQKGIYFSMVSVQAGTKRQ

[14] = biological target: T3, ATP-dependent translocase ABCB1; test: ABCB1 efflux inhibitor potency, dose response, Jurkat-DNR cells, JC-1, flow cytometry, set 2 (AID 504569); format: functional; details: read-out: EC50_MICROM_;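 note: potency of pump inhibitors that raise cellular JC-1 green fluorescence up to the nicardipine level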
[15] = test system: HeLa; test: HeLa cell cytotoxicity, dose response, cytotoxicity control, ATP luminescence, cherry-pick samples (AID 687004); format: functional, cell-based; details: Homo sapiens
[16] = ZM109 Env clade C HIV-1 fusion inhibitors, dose response, HeLa effector, CEM target cells, luciferase, cherry-pick (AID 652058); format: functional, cell-based
[17] = biological target: Protein Wnt-3a (Mus musculus, UniProt P27467); test: SAR analysis of small molecule antagonists of Gli-SUFU in a Wnt3a luminescent reporter assay.; format: functional
Sequence of Protein Wnt-3a (P27467 whole entry): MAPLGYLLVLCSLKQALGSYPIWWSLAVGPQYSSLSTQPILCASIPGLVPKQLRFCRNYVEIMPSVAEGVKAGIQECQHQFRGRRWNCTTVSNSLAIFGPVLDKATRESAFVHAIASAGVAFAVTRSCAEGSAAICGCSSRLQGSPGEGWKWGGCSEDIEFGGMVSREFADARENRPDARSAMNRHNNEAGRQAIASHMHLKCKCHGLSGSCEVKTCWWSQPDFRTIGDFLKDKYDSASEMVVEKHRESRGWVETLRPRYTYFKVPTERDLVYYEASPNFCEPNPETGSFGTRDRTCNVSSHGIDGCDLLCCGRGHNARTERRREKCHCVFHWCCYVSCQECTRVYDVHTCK

[18] = HEK293 cell cytotoxicity, dose response, cytotoxicity control, ATP luminescence, dry powder, Set6 (AID 743142); format: functional, cell-based
[19] = A549 cell cytotoxicity, dose response, cytotoxicity control, CellTiter-Glo luminescence, dry powder, set 3 (AID 743146); format: functional, cell-based

With O=C1/C(=C\c2ccccc2)CN(C(=O)CCN2CCCCC2)C/C1=C/c1ccccc1 the IC50 [1] was 2.89 µM (active) and the IC50 [2] was 84.9 µM (active).

In the case of CC1C(c2ccccc2)OCCN1C(=S)Nc1ccc(S(=O)(=O)N2CCCCC2)cc1 (centres undefined), the IC50 [3] is reported as 4.48 µM (active) and the IC50 [4] is reported as 3.69 µM (active).

In the case of CC(=O)OCC1OC(n2c(S)c(C#N)c(-c3ccccc3)c(C#N)c2=O)C(OC(C)=O)C(OC(C)=O)C1OC(C)=O (centres undefined), the IC50 [5] is reported as 0.503 µM (active) and the EC50 [6] is reported as > 29.9 µM (inactive).

For CCOc1cccc(/C=N/NC(=O)c2cccnc2)c1O, the IC50 [7] was 15.5 µM (active) and the AC50 [8] was 101 µM (active).

For C[C@@H]1CN([C@H](C)CO)C(=O)Cc2cc(NS(=O)(=O)c3ccc(Cl)cc3)ccc2O[C@@H]1CN(C)S(=O)(=O)c1ccc(Cl)cc1, the AC50 [9] was 39 µM (inactive) and the AC50 [10] was 3.39 µM (active).

For O=C(NC[C@H]1[C@H](c2ccccc2)[C@H](CO)N1Cc1ccccn1)C1CCC1, the AC50 [11] was 129 µM (active).

With C[C@@H]1CN([C@@H](C)CO)C(=O)c2cc(C#Cc3cccnc3)cnc2O[C@H]1CN(C)S(C)(=O)=O the AC50 [12] was 6.02 µM (active).

For Cc1cccc(-c2cc3nc(-c4ccccc4)cc(N4CCN(C(=O)c5ccco5)CC4)n3n2)c1, the EC50 [13] was 3.22 µM (active) and the EC50 [14] was 3.77 µM (active).

For COc1ccccc1C(=O)Nc1ccc2c(c1)OC[C@H](C)N(C(C)=O)C[C@H](C)[C@H](OC)CN(C)C2=O, the AC50 [15] was 44.9 µM (active) and the AC50 [16] was 33.4 µM (active).

For COc1cccc(C(=O)Nc2cc(N3CCCCC3)ncn2)c1, the IC50 [17] was > 21.8 µM (inactive).

With COc1ccc(C(=O)NCCC(=O)N[C@@H]2CCCc3ccccc32)cc1 the AC50 [18] was 3.54 µM (active) and the AC50 [19] was > 52 µM (inactive).
